Measurements published in PubChem BioAssay (NCI).
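How tested: cells in 96-well plates exposed to compound for 48 hours at five concentrations. TGI: total growth inhibition.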

Experiments:
Experiment in all cases: inhibition of tumour cell growth, NCI panel, 48 h
MALME-3M melanoma = tested on: MALME-3M melanoma
A549 NSCLC = tested on: A549 NSCLC
NCI-H23 lung = tested on: NCI-H23 lung
CCRF-CEM leukemia = tested on: CCRF-CEM leukemia
HS 578T breast = tested on: HS 578T breast
OVCAR-8 ovarian = tested on: OVCAR-8 ovarian
SK-MEL-28 melanoma = tested on: SK-MEL-28 melanoma
MDA-N = tested on: MDA-N
SW-620 colon = tested on: SW-620 colon
SNB-75 CNS = tested on: SNB-75 CNS
KM12 colon = tested on: KM12 colon
SK-OV-3 ovarian = tested on: SK-OV-3 ovarian
UO-31 renal = tested on: UO-31 renal
HCT-15 colon = tested on: HCT-15 colon
MOLT-4 leukemia = tested on: MOLT-4 leukemia
SF-295 CNS = tested on: SF-295 CNS
IGROV1 ovarian = tested on: IGROV1 ovarian
LOX IMVI melanoma = tested on: LOX IMVI melanoma
SK-MEL-2 melanoma = tested on: SK-MEL-2 melanoma
MDA-MB-231 breast = tested on: MDA-MB-231 breast
K-562 leukemia = tested on: K-562 leukemia
DU-145 prostate = tested on: DU-145 prostate
HCT-116 colon = tested on: HCT-116 colon
T-47D breast = tested on: T-47D breast
HT29 colon = tested on: HT29 colon
HOP-62 NSCLC = tested on: HOP-62 NSCLC
HL-60(TB) leukemia = tested on: HL-60(TB) leukemia
SF-268 CNS = tested on: SF-268 CNS
BT-549 breast = tested on: BT-549 breast
MDA-MB-435 = tested on: MDA-MB-435
MCF7 breast = tested on: MCF7 breast
NCI-H460 lung = tested on: NCI-H460 lung
OVCAR-3 ovarian = tested on: OVCAR-3 ovarian
SF-539 CNS = tested on: SF-539 CNS
OVCAR-4 ovarian = tested on: OVCAR-4 ovarian
NCI-H522 lung = tested on: NCI-H522 lung
RPMI-8226 leukemia = tested on: RPMI-8226 leukemia
TK-10 renal = tested on: TK-10 renal
RXF 393 renal = tested on: RXF 393 renal
HOP-92 NSCLC = tested on: HOP-92 NSCLC
COLO 205 colon = tested on: COLO 205 colon
NCI/ADR-RES ovarian = tested on: NCI/ADR-RES ovarian
SN12C renal = tested on: SN12C renal
A498 renal = tested on: A498 renal
UACC-257 melanoma = tested on: UACC-257 melanoma
OVCAR-5 ovarian = tested on: OVCAR-5 ovarian
M14 melanoma = tested on: M14 melanoma
UACC-62 melanoma = tested on: UACC-62 melanoma
SK-MEL-5 melanoma = tested on: SK-MEL-5 melanoma
SNB-19 CNS = tested on: SNB-19 CNS
786-0 renal = tested on: 786-0 renal
PC-3 prostate = tested on: PC-3 prostate
ACHN renal = tested on: ACHN renal
U251 CNS = tested on: U251 CNS
EKVX NSCLC = tested on: EKVX NSCLC
HCC-2998 colon = tested on: HCC-2998 colon
NCI-H226 lung = tested on: NCI-H226 lung
SR leukemia = tested on: SR leukemia

Measured: TGI

COc1ccc2nc(NCN3C(=O)c4ccccc4C3=O)sc2c1
> 100 µM: MALME-3M melanoma | A549 NSCLC | NCI-H23 lung | CCRF-CEM leukemia | HS 578T breast | OVCAR-8 ovarian | SK-MEL-28 melanoma | MDA-N | SW-620 colon | SNB-75 CNS | KM12 colon | SK-OV-3 ovarian | UO-31 renal | HCT-15 colon | MOLT-4 leukemia | SF-295 CNS | IGROV1 ovarian | LOX IMVI melanoma | SK-MEL-2 melanoma | MDA-MB-231 breast | K-562 leukemia | DU-145 prostate | HCT-116 colon | T-47D breast | HT29 colon | HOP-62 NSCLC | HL-60(TB) leukemia | SF-268 CNS | BT-549 breast | MDA-MB-435 | MCF7 breast | NCI-H460 lung | OVCAR-3 ovarian | SF-539 CNS | OVCAR-4 ovarian | NCI-H522 lung | RPMI-8226 leukemia | TK-10 renal | RXF 393 renal | HOP-92 NSCLC | COLO 205 colon | NCI/ADR-RES ovarian | SN12C renal | A498 renal | UACC-257 melanoma | OVCAR-5 ovarian | M14 melanoma | UACC-62 melanoma | SK-MEL-5 melanoma | SNB-19 CNS | 786-0 renal | PC-3 prostate | ACHN renal | U251 CNS | EKVX NSCLC

CCOC(=O)c1cn(CC)c2cc3c(cc2c1=O)CCS3(=O)=O
> 100 µM: MALME-3M melanoma | A549 NSCLC | NCI-H23 lung | CCRF-CEM leukemia | HS 578T breast | OVCAR-8 ovarian | SK-MEL-28 melanoma | MDA-N | SW-620 colon | KM12 colon | SK-OV-3 ovarian | UO-31 renal | HCT-15 colon | MOLT-4 leukemia | SF-295 CNS | IGROV1 ovarian | SK-MEL-2 melanoma | MDA-MB-231 breast | HCC-2998 colon | K-562 leukemia | DU-145 prostate | HCT-116 colon | T-47D breast | HT29 colon | HOP-62 NSCLC | HL-60(TB) leukemia | SF-268 CNS | BT-549 breast | MDA-MB-435 | MCF7 breast | NCI-H460 lung | OVCAR-3 ovarian | SF-539 CNS | TK-10 renal | RXF 393 renal | HOP-92 NSCLC | NCI-H226 lung | NCI/ADR-RES ovarian | SN12C renal | A498 renal | OVCAR-5 ovarian | SR leukemia | M14 melanoma | UACC-62 melanoma | SK-MEL-5 melanoma | SNB-19 CNS | 786-0 renal | PC-3 prostate | ACHN renal | U251 CNS | EKVX NSCLC
